Reference: ChEMBL document CHEMBL1135294, “Synthesis of a molecular mimic of the Glc1Man9 oligoside as potential inhibitor of calnexin binding to DeltaF508 CFTR protein” (Bioorg Med Chem Lett, 2002)

Target: T1, Calnexin (Homo sapiens, UniProt P27824)
T1 sequence (P27824 whole entry): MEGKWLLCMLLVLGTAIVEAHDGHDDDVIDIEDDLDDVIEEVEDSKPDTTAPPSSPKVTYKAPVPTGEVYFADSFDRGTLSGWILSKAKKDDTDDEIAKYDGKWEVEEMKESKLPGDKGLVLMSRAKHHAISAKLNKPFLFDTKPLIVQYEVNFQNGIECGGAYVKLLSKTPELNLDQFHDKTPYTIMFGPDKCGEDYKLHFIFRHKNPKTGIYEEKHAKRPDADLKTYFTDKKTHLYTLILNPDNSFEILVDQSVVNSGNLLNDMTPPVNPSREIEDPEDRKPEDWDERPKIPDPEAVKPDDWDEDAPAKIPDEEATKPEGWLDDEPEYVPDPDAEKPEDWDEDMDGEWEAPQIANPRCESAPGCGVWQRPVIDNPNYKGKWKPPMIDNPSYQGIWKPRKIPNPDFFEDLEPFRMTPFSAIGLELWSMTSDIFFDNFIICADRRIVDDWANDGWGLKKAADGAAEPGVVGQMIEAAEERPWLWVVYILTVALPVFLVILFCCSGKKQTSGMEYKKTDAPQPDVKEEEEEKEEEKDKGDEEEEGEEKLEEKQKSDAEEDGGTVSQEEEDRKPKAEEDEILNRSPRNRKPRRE
Test: Compound was tested for its ability to inhibit binding of [3H]- Glc1Man9 GlcNAc2 to GST-fused calnexin immobilized on glutathione-agarose

SMILES: O=C(NCC(CNC(=O)OCCNC(=O)O[C@H]1O[C@@H](CO)[C@@H](O)[C@H](O)[C@H]1O)OC(=O)NC(O)NC(=O)OCCOCCNC(=O)O[C@H]1C[C@@H](CO)[C@@H](O)[C@H](O[C@H]2O[C@@H](CO)[C@@H](O)[C@H](O)[C@@H]2O)[C@H]1O)OCCNC(=O)O[C@H]1O[C@@H](CO)[C@@H](O)[C@H](O)[C@H]1O (stereo partly specified)
- IC50: 300 µM
